Results as given in patent US11685719B2, “Pyridinone MK2 inhibitors and uses thereof” (Xinthera, Inc., priority 2021, dated 2023).

Key:
p38a/MK2 = p38a/MK2 (Homo sapiens (Human), UniProt P49137+Q16539); assay: biochemical; settings: 10-point 1:3 dilution, top dose 1 μM; 10 μM ATP, 2 h incubation; read-out: p38a/MK2 (1 μM) Enzyme pIC50 (converted)
Protocol: (§1) Expression vectors of the recombinant MK2 and PRAK kinases were constructed by cloning of the codon optimized gene sequences of MK2 (Uniprot ID P49137, amino acid fragment F46-H400), or PRAK (Uniprot ID Q81W41, amino acid fragment M1-Q471) into pGEX-4T1 (GE) for over expression of these kinases with N-terminal GST-tag. Protein expression was carried out in E. coli BL21 by growing the hosts in TB medium, induction of protein expression with 0.5 mM IPTG at approximate 0.8 OD600, and incubation of the cultures at 18° C. for 14-20 hours afterwards. The harvested cells were resuspended in […] of Lysis buffer (50 mM Tris-HCl, pH 8.0, 500 mM NaCl, 1 mM DTT, 5% glycerol, and 1 mM PMSF) per gram of wet cell mass and homogenized at 4° C. in a microfluidizer (ATS, Suzhou, China) at 14,000 psi pressure, 3 passes. The cell lysates were clarified by centrifugation and the supernatants containing the GST-fusion proteins were purified by affinity chromatography using GSH-Sepharose (GE) gravity flow columns pre-equilibrated in Buffer A (50 mM Tris-HCl, pH 8.0, 500 mM NaCl, 1 mM DTT, and 5% glycerol). After thorough washing of the columns with Buffer A, the bound GST-proteins were eluted by Buffer B (50 mM Tris, pH 8.0, 500 mM NaCl, 1 mM DTT, 5% glycerol, 10 mM glutathione), followed by size-exclusion purification on Superdex 200 column equilibrated in Buffer A. The purified proteins were concentrated to approximately 1 mg/ml and stored at −80° C.
(§2) This study evaluates the inhibitory potency of invention compound on p38/MK2 pathway vs p38/PRAK pathway. More specially the compound concentration (IC50) was determined that inhibited half of the maximal activation of MK2 or PRAK by p38. MK2 activation study was set up without or with a serial of 10-point 1:3 dilution of invention compound at top dose of 1 or 10 μM, and PRAK activation study was set up without or with a serial of 10-point 1:3 dilution of invention compound at top dose of 300 μM. The MIK2 and PRAK activity were determined by the phosphorylation level of HSP27 peptide conjugated with FITC.

p38a/PRAK = p38a/PRAK (Homo sapiens (Human), UniProt Q16539); assay: biochemical; settings: 10-point 1:3 dilution, top dose 300 μM; 10 μM ATP, 2 h incubation; read-out: p38a/PRAK Enzyme pIC50 (converted)
Protocol: as §1, §2

p38a/PRAK, sequence (Q16539 whole entry): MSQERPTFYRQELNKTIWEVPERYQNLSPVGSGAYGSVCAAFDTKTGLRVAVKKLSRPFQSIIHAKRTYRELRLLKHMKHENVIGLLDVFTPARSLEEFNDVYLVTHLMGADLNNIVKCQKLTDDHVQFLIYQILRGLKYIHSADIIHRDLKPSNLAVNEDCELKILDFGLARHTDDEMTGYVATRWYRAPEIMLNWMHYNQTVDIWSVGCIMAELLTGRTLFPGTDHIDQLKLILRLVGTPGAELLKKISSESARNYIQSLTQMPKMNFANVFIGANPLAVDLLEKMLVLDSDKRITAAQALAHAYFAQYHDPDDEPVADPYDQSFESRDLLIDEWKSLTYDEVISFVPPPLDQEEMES
p38a/MK2, sequence (Q16539 whole entry, the tested form may be a part): as the sequence (Q16539 whole entry) above
p38a/MK2, sequence (P49137 46-400): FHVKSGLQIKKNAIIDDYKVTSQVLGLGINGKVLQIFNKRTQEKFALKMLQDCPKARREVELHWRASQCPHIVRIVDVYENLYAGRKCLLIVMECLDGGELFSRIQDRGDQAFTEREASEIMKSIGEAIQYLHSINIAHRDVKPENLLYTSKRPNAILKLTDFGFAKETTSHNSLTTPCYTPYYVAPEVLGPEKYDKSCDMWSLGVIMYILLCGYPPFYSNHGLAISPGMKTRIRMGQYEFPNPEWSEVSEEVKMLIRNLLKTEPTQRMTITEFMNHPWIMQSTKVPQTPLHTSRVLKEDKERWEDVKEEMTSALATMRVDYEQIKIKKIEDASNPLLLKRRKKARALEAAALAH

Cc1cnc(-n2nccc(C(C)(C)O)c2=O)cc1-n1c(C)cc(OCc2ncc(F)cc2F)c(Cl)c1=O (single isomer, unassigned) [Example 9B, rel-3-chloro-4-[(3,5-difluoropyridin-2-yl)methoxy]-2′-[5-(2-hydroxypropan-2-yl)-6-oxopyridazin-1-yl]-5′,6-dimethyl-[1,4′-bipyridin]-2-one]
IC50 (p38a/MK2): > 1000 nM | IC50 (p38a/PRAK): > 316000 nM

Cc1cnc(-n2cncc(C(C)(C)O)c2=O)cc1-n1c(C)cc(OCc2ncc(F)cc2F)c(Cl)c1=O (single isomer, unassigned) [Example 10A, rel-3-chloro-4-[(3,5-difluoropyridin-2-yl)methoxy]-2′-[5-(2-hydroxypropan-2-yl)-6-oxopyrimidin-1-yl]-5′,6-dimethyl-[1,4′-bipyridin]-2-one]
IC50 (p38a/MK2): 100 nM | IC50 (p38a/PRAK): 3980 nM

Cc1cnc(-n2cncc(C(C)(C)O)c2=O)cc1-n1c(C)cc(OCc2ncc(F)cc2F)c(Cl)c1=O (single isomer, unassigned) [Example 10B, rel-3-chloro-4-[(3,5-difluoropyridin-2-yl)methoxy]-2′-[5-(2-hydroxypropan-2-yl)-6-oxopyrimidin-1-yl]-5′,6-dimethyl-[1,4′-bipyridin]-2-one]
IC50 (p38a/MK2): > 1000 nM | IC50 (p38a/PRAK): > 316000 nM

Cc1cnc(-n2cccc(C(C)(C)CO)c2=O)cc1-n1c(C)cc(OCc2ncc(F)cc2F)c(Cl)c1=O (single isomer, unassigned) [Example 11A, rel-3-chloro-4-[(3,5-difluoropyridin-2-yl)methoxy]-2′-[3-(1-hydroxy-2-methylpropan-2-yl)-2-oxopyridin-1-yl]-5′,6-dimethyl-[1,4′-bipyridin]-2-one]
IC50 (p38a/MK2): 3.98 nM | IC50 (p38a/PRAK): 5010 nM

Cc1cnc(-n2cccc(C(C)(C)CO)c2=O)cc1-n1c(C)cc(OCc2ncc(F)cc2F)c(Cl)c1=O (single isomer, unassigned) [Example 11B, rel-3-chloro-4-[(3,5-difluoropyridin-2-yl)methoxy]-2′-[3-(1-hydroxy-2-methylpropan-2-yl)-2-oxopyridin-1-yl]-5′,6-dimethyl-[1,4′-bipyridin]-2-one]
IC50 (p38a/MK2): > 1000 nM | IC50 (p38a/PRAK): > 316000 nM

Cc1cnc(-n2cccc(C3(O)CCC3)c2=O)cc1-n1c(C)cc(OCc2ncc(F)cc2F)c(Cl)c1=O (single isomer, unassigned) [Example 12A, rel-3-chloro-4-[(3,5-difluoropyridin-2-yl)methoxy]-2′-[3-(1-hydroxycyclobutyl)-2-oxopyridin-1-yl]-5′,6-dimethyl-[1,4′-bipyridin]-2-one]
IC50 (p38a/MK2): 12.6 nM | IC50 (p38a/PRAK): 7940 nM

Cc1cnc(-n2cccc(C3(O)CCC3)c2=O)cc1-n1c(C)cc(OCc2ncc(F)cc2F)c(Cl)c1=O (single isomer, unassigned) [Example 12B, rel-3-chloro-4-[(3,5-difluoropyridin-2-yl)methoxy]-2′-[3-(1-hydroxycyclobutyl)-2-oxopyridin-1-yl]-5′,6-dimethyl-[1,4′-bipyridin]-2-one]
IC50 (p38a/MK2): > 1000 nM | IC50 (p38a/PRAK): > 316000 nM

Cc1cnc(-n2cc(C(C)(C)O)ccc2=O)cc1-n1c(C)cc(OCc2ncc(F)cc2F)c(Cl)c1=O (single isomer, unassigned) [Example 13A, rel-3-chloro-4-[(3,5-difluoropyridin-2-yl)methoxy]-2′-[5-(2-hydroxypropan-2-yl)-2-oxopyridin-1-yl]-5′,6-dimethyl-[1,4′-bipyridin]-2-one]
IC50 (p38a/MK2): > 1000 nM | IC50 (p38a/PRAK): > 316000 nM

Cc1cnc(-n2cccc([C@](C)(O)C3CC3)c2=O)cc1-n1c(C)cc(OCc2ncc(F)cc2F)c(Cl)c1=O (single isomer, unassigned) [Example 14A, rel-3-chloro-2′-[3-(1-cyclopropyl-1-hydroxyethyl)-2-oxopyridin-1-yl]-4-[(3,5-difluoropyridin-2-yl)methoxy]-5′,6-dimethyl-[1,4′-bipyridin]-2-one]
IC50 (p38a/MK2): 1.58 nM | IC50 (p38a/PRAK): 3160 nM

Cc1cnc(-n2cccc([C@@](C)(O)C3CC3)c2=O)cc1-n1c(C)cc(OCc2ncc(F)cc2F)c(Cl)c1=O (single isomer, unassigned) [Example 14B, rel-3-chloro-2′-[3-(1-cyclopropyl-1-hydroxyethyl)-2-oxopyridin-1-yl]-4-[(3,5-difluoropyridin-2-yl)methoxy]-5′,6-dimethyl-[1,4′-bipyridin]-2-one]
IC50 (p38a/MK2): 1.26 nM | IC50 (p38a/PRAK): 3160 nM

Cc1cnc(-n2cccc([C@](C)(O)C3CC3)c2=O)cc1-n1c(C)cc(OCc2ncc(F)cc2F)c(Cl)c1=O (single isomer, unassigned) [Example 14C, rel-3-chloro-2′-[3-(1-cyclopropyl-1-hydroxyethyl)-2-oxopyridin-1-yl]-4-[(3,5-difluoropyridin-2-yl)methoxy]-5′,6-dimethyl-[1,4′-bipyridin]-2-one]
IC50 (p38a/MK2): > 1000 nM | IC50 (p38a/PRAK): > 316000 nM

Cc1cnc(-n2cccc([C@@](C)(O)C3CC3)c2=O)cc1-n1c(C)cc(OCc2ncc(F)cc2F)c(Cl)c1=O (single isomer, unassigned) [Example 14D, rel-3-chloro-2′-[3-(1-cyclopropyl-1-hydroxyethyl)-2-oxopyridin-1-yl]-4-[(3,5-difluoropyridin-2-yl)methoxy]-5′,6-dimethyl-[1,4′-bipyridin]-2-one]
IC50 (p38a/MK2): > 1000 nM | IC50 (p38a/PRAK): > 316000 nM

Cc1cnc(-n2ccc(C)c(C(C)(C)O)c2=O)cc1-n1c(C)cc(OCc2ncc(F)cc2F)c(Cl)c1=O (single isomer, unassigned) [Example 15A, rel-3-chloro-4-[(3,5-difluoropyridin-2-yl)methoxy]-2′-[3-(2-hydroxypropan-2-yl)-4-methyl-2-oxopyridin-1-yl]-5′,6-dimethyl-[1,4′-bipyridin]-2-one]
IC50 (p38a/MK2): 10 nM | IC50 (p38a/PRAK): 2510 nM

Cc1cnc(-n2ccc(C)c(C(C)(C)O)c2=O)cc1-n1c(C)cc(OCc2ncc(F)cc2F)c(Cl)c1=O (single isomer, unassigned) [Example 15B, rel-3-chloro-4-[(3,5-difluoropyridin-2-yl)methoxy]-2′-[3-(2-hydroxypropan-2-yl)-4-methyl-2-oxopyridin-1-yl]-5′,6-dimethyl-[1,4′-bipyridin]-2-one]
IC50 (p38a/MK2): > 1000 nM | IC50 (p38a/PRAK): > 316000 nM

Cc1ncc(-n2cccc(C(C)(C)O)c2=O)cc1-n1c(C)cc(OCc2ncc(F)cc2F)c(Cl)c1=O (single isomer, unassigned) [Example 16A, rel-5′-{3-chloro-4-[(3,5-difluoropyridin-2-yl)methoxy]-6-methyl-2-oxopyridin-1-yl}-3-(2-hydroxypropan-2-yl)-6′-methyl-[1,3′-bipyridin]-2-one]
IC50 (p38a/MK2): 200 nM | IC50 (p38a/PRAK): 7940 nM

Cc1ncc(-n2cccc(C(C)(C)O)c2=O)cc1-n1c(C)cc(OCc2ncc(F)cc2F)c(Cl)c1=O (single isomer, unassigned) [Example 16B, rel-5′-{3-chloro-4-[(3,5-difluoropyridin-2-yl)methoxy]-6-methyl-2-oxopyridin-1-yl}-3-(2-hydroxypropan-2-yl)-6′-methyl-[1,3′-bipyridin]-2-one]
IC50 (p38a/MK2): > 1000 nM | IC50 (p38a/PRAK): > 316000 nM

Cc1cnc(-n2cccc(C(C)C)c2=O)cc1-n1c(C)cc(OCc2ncc(F)cc2F)c(Cl)c1=O (single isomer, unassigned) [Example 17A, rel-3-chloro-4-[(3,5-difluoropyridin-2-yl)methoxy]-2′-(3-isopropyl-2-oxopyridin-1-yl)-5′,6-dimethyl-[1,4′-bipyridin]-2-one]
IC50 (p38a/MK2): 1.58 nM | IC50 (p38a/PRAK): 6310 nM

Cc1cnc(-n2cccc(C(C)C)c2=O)cc1-n1c(C)cc(OCc2ncc(F)cc2F)c(Cl)c1=O (single isomer, unassigned) [Example 17B, rel-3-chloro-4-[(3,5-difluoropyridin-2-yl)methoxy]-2′-(3-isopropyl-2-oxopyridin-1-yl)-5′,6-dimethyl-[1,4′-bipyridin]-2-one]
IC50 (p38a/MK2): > 1000 nM | IC50 (p38a/PRAK): > 316000 nM

[2H]C([2H])(Oc1cc(C)n(-c2cc(-n3cccc(C(C)(C)O)c3=O)ncc2C)c(=O)c1Cl)c1ncc(F)cc1F (single isomer, unassigned) [Example 18A, rel-3″-chloro-4″-((3,5-difluoropyridin-2-yl)methoxy-d2)-3-(2-hydroxypropan-2-yl)-5′,6″-dimethyl-2H,2″H-[1,2′:4′,1″-terpyridine]-2,2″-dione]
IC50 (p38a/MK2): 1.58 nM | IC50 (p38a/PRAK): 3160 nM
